Reference: ChEMBL document CHEMBL4130413, “1-Aryl-1H- and 2-aryl-2H-1,2,3-triazole derivatives blockade P2X7 receptor in vitro and inflammatory response in vivo” (Eur J Med Chem, 2017)
Activity calls are given as the source filed them. The calls are words filed in the database; no cut-off is given here.

Key:
P2X purinoceptor 7 [1] = molecular target: T1, P2X purinoceptor 7 (Mus musculus, UniProt Q9Z1M0); assay: Antagonist activity at P2X7 receptor in Swiss mouse peritoneal macrophages assessed as inhibition of BzATP-induced current at holding potential of -60 mV preincubated for 5 mins followed by BzATP addition measured after 5 mins by Whole cell patch-clamp analysis
T1 sequence (Q9Z1M0 whole entry): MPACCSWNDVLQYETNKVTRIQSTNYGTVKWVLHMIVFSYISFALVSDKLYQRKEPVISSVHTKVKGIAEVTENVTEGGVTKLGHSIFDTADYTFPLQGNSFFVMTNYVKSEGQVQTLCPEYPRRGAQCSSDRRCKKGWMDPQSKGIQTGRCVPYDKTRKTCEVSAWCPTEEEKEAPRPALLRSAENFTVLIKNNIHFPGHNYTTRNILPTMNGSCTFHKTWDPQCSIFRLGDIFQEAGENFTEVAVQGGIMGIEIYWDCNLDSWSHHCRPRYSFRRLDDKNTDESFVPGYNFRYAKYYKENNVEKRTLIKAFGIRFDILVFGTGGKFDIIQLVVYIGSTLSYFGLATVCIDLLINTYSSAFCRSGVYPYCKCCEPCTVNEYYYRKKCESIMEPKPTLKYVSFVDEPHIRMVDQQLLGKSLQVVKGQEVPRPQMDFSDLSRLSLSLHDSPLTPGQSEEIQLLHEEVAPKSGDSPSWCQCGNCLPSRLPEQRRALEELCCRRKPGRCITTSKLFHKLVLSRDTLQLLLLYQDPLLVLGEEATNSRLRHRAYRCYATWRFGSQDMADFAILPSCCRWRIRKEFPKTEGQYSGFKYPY

[2] = molecular target: T2, P2X purinoceptor 7 (Homo sapiens) (UniProt Q99572); assay: (§1) Antagonist activity at P2X7 receptor in LPS/IFNc-differentiated human THP-1 cells assessed as inhibition of ATP-induced IL-1beta release preincubated for 30 mins followed by LPS stimulation for 4 hrs using cells treated with ATP for 30 mins by ELISA; format: cell-based
T2 sequence (whole entry): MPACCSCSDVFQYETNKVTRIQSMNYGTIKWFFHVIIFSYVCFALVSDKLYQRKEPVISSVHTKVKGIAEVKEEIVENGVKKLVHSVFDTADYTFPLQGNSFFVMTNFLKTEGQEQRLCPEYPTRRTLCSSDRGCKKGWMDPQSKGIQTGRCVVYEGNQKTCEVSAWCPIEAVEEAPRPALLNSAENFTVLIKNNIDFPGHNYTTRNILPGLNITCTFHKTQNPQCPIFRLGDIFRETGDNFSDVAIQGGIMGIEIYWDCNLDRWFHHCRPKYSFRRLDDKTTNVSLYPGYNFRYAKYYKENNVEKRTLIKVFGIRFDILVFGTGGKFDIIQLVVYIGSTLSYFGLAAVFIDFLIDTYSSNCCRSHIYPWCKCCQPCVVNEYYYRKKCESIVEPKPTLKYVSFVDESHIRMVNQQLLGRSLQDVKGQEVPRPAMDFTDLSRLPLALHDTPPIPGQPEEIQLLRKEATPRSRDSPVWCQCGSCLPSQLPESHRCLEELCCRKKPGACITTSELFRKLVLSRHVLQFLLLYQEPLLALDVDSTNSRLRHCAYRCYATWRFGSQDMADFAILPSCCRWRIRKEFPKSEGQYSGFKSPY

P2X purinoceptor 7 [3] = molecular target: T3, P2X purinoceptor 7 (Homo sapiens, UniProt Q99572); assay: as §1; format: cell-based
T3 sequence (Q99572 whole entry): T2 sequence (whole entry)

[4] = Apparent permeability across apical to basolateral side in human Caco2 cells at 100 uM after 60 mins by lucifer yellow dye-based fluorescence assay; format: ADME, cell-based; details: Caco-2
[5] = Kinetic solubility in pH 10 sodium hydroxide buffer at 1 to 250 uM after 2 hrs; format: physicochemical; details: read-out: Kinetic_solubility
Mus musculus [6] = assay: Anti-inflammatory activity in ip dosed Swiss Webster mouse assessed as inhibition of ATP-induced paw edema pretreated for 60 mins followed by ATP administration and measured after 30 mins; format: functional
Mus musculus [7] = assay: Anti-inflammatory activity in po dosed Swiss Webster mouse assessed as inhibition of ATP-induced paw edema pretreated for 60 mins followed by ATP administration and measured after 30 mins; format: functional
Mus musculus [8] = assay: Anti-inflammatory activity in po dosed Swiss Webster mouse assessed as inhibition of carrageenan-induced paw edema pretreated for 60 mins followed by carrageenan administration and measured after 60 mins; format: functional
Mus musculus [9] = assay: Anti-inflammatory activity in Swiss mouse assessed as inhibition of LPS-induced pleural accumulation in total leucocytes at 1 to 100 ng/kg, ip pretreated for 1 hr followed by LPS stimulation and measured after 24 hrs by May-Grunwald-Giemsa staining-based Neubauer chamber based optical microscopy; format: functional, organism-based
Mus musculus [10] = assay: Anti-inflammatory activity in Swiss mouse assessed as inhibition of LPS-induced pleural accumulation in neutrophils at 1 to 100 ng/kg, ip pretreated for 1 hr followed by LPS stimulation and measured after 24 hrs by May-Grunwald-Giemsa staining-based Neubauer chamber based optical microscopy; format: functional, organism-based
Mus musculus [11] = assay: Anti-inflammatory activity in Swiss mouse assessed as inhibition of LPS-induced protein extravasation in thoracic cavity at 100 ng/kg, ip pretreated for 1 hr followed by LPS stimulation and measured after 24 hrs; format: functional, organism-based
Mus musculus [12] = assay: Anti-inflammatory activity in Swiss mouse assessed as inhibition of LPS-induced nitric oxide production in pleural washes at 1 to 100 ng/kg, ip pretreated for 1 hr followed by LPS stimulation and measured after 24 hrs by Lowry/Griess analysis; format: functional, organism-based
[13] = molecular target: T4, P2X purinoceptor 7 (Mus musculus) (UniProt Q9Z1M0); assay: Antagonist activity at mouse P2X7 receptor expressed in HEK293 cells assessed as inhibition of ATP-induced ethidium iodide uptake at 10 uM preincubated for 10 mins followed by ATP addition measured after 20 mins by FLIPR assay relative to 1 mM ATP; format: cell-based
T4 sequence (whole entry): T1 sequence (Q9Z1M0 whole entry)

[14] = molecular target: P2X purinoceptor 7 (Mus musculus) (UniProt Q9Z1M0); assay: Antagonist activity at P2X7 receptor in Swiss mouse peritoneal macrophages assessed as inhibition of ATP-induced propidium iodide uptake at 10 uM after 30 mins by FLIPR assay relative to 1 mM ATP
P2X purinoceptor 7 [15] = molecular target: T3, P2X purinoceptor 7; assay: Antagonist activity at human P2X7 receptor in PMA-differentiated THP-1 macrophages assessed as inhibition of ATP-induced IL-1beta release preincubated for 30 mins followed by ATP addition measured after 30 mins by ELISA
P2X purinoceptor 7 [16] = molecular target: T1, P2X purinoceptor 7; assay: Antagonist activity at P2X7 receptor in LPS/IFNc-differentiated Swiss mouse peritoneal macrophages assessed as inhibition of ATP-induced IL-1beta release preincubated for 30 mins followed by LPS stimulation for 4 hrs using cells treated with ATP for 30 mins by ELISA
Mus musculus [17] = assay: Anti-inflammatory activity in Swiss mouse assessed as inhibition of LPS-induced pleural accumulation in eosiniphils at 100 mg/kg, ip pretreated for 1 hr followed by LPS stimulation and measured after 24 hrs by May-Grunwald-Giemsa staining-based Neubauer chamber based optical microscopy; format: functional, organism-based

Row | SMILES | IC50 (P2X purinoceptor 7 [1]) | Activity [2] | IC50 (P2X purinoceptor 7 [3]) | Papp A→B at 1 h, 100 µM [4] | solubility kinetic at 2 h [5] | ID50 (Mus musculus [6]) | ID50 (Mus musculus [7]) | ID50 (Mus musculus [8]) | Activity (Mus musculus [9]) | Activity (Mus musculus [10]) | Activity (Mus musculus [11]) | Activity (Mus musculus [12]) | inhibition [13] | inhibition [14] | IC50 (P2X purinoceptor 7 [15]) | IC50 (P2X purinoceptor 7 [16]) | Activity (Mus musculus [17])
1 | CCOCc1cn(-c2ccc(Cl)cc2)nn1 | 41.1 nM | Dose-dependent effect | 67.5 nM | 77.4 ×10⁻⁶ cm/s | < 250 µM | 0.07984 µg/kg | 0.06859 µg/kg | 0.08049 µg/kg | Active | inactive | Active | Active | Active | 84.7% | 67 nM | 91 nM | 
2 | O=C(O)Cc1ccccc1Nc1c(Cl)cccc1Cl [DICLOFENAC] |  |  |  |  |  |  |  |  |  |  |  |  |  |  |  |  | inactive
